These are literature values, as cited in patent US11136546B2, “Recombinant Escherichia coli and application of the same” (Zhengzhou Zhonghao Biological Technology Co., Ltd., priority 2018, dated 2021).

Data set [1] has as its system Salmonella. The settings on record: in vitro bacteriostatic tests.
The subject of data set [2] is pathogenic E. coli. The settings on record: in vitro bacteriostatic tests; a variety of pathogenic E. coli.

Where no end group is shown, it is not given here.

As for “Microcin J25: antibacterial lasso peptide consisting of 21 amino acids (SEQ ID No.: 4), obtained by fermentation of genetically engineered Escherichia coli (GGAGHVPEYFVGIGTPISFYG; also: lasso cyclisation, places not given here)”, in data set [1], the “killing of Salmonella” value was “able to kill”. The “killing of pathogenic E. coli” value in data set [2] was “able to kill”.
